Laboratory results: article PMC10840383, “Clinical features, functional consequences, and rescue pharmacology of missense GRID1 and GRID2 human variants” (Human Molecular Genetics, 2023)
Positions count from the first letter of the chain named.

What was measured:
Assay type in all cases: cell-based
GluD2-T649A = target: T1, GluD2-T649A (Rattus norvegicus, UniProt Q63226, T649A); experiment: TEVC of constitutive current, Xenopus oocytes expressing GluD2-T649A; settings: for IC50: inhibitors of constitutively active GluD2 current, read-out: T649A IC50
T1 construct: expressed in transfected cells; host or cells: Xenopus laevis oocytes injected with cRNA
T1 sequence (Q63226 24-1007 T649A): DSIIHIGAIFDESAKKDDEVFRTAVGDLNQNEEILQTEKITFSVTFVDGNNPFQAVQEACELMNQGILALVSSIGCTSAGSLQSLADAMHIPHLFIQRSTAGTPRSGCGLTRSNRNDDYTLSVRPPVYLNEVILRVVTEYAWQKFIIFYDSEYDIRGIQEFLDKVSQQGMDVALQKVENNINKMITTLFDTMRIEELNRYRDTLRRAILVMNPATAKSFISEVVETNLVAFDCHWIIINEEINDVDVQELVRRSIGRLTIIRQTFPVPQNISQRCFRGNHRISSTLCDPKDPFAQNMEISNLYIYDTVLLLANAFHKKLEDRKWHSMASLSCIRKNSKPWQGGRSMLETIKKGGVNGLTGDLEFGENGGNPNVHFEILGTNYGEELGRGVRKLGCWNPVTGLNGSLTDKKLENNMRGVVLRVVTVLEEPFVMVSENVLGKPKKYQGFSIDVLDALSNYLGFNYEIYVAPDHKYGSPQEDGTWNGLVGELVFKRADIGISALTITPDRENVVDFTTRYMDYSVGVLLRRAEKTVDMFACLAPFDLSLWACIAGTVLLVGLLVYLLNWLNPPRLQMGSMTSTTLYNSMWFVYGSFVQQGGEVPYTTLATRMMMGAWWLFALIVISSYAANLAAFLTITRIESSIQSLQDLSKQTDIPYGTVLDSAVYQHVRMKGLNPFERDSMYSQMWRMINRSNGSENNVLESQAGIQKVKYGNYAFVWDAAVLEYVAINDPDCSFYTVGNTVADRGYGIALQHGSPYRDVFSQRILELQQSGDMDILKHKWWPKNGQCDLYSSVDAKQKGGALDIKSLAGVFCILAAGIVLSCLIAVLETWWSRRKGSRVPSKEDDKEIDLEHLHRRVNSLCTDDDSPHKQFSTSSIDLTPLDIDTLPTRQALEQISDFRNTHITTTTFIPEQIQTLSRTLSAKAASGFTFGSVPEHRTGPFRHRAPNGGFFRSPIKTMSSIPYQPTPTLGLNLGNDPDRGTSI

GluD2-A654T = target: T2, GluD2-A654T (Rattus norvegicus, UniProt Q63226, A654T); experiment: TEVC of constitutive current, Xenopus oocytes expressing GluD2-A654T (lurcher); settings: for IC50: inhibitors of constitutively active GluD2 current, read-out: A654T IC50
T2 construct: expressed in transfected cells; host or cells: Xenopus laevis oocytes injected with cRNA
T2 sequence (Q63226 24-1007 A654T): T1 sequence (Q63226 24-1007 T649A) with A626T, A631T

[1] = tested on: constitutively active GluD1 and GluD2 receptor variants; experiment: Inhibition of constitutive currents of GluD variants by channel blockers, Xenopus oocytes
Protocol: Xenopus laevis oocytes were prepared from ovaries purchased from Xenopus 1 (Dexter, MI) as previously described, [68] and incubated at 16°C in culture Barth’s solution (in mM) 88 NaCl, 2.4 NaHCO3, 1 KCl, 0.33 Ca(NO3)2, 0.41 CaCl2, 0.82 MgSO4, 10 HEPES, pH 7.4 with NaOH, supplemented with 1 U/ml penicillin and 1 μg/ml streptomycin. Oocytes were injected with approximately 5–40 ng RNA per oocyte and then incubated at 16–19°C for 1–3 days in culture Barth’s solution. The levels of GluD2-A654D and GluD2-A654T cRNA were reduced to 1.5 ng and 2.5 ng, respectively, due to oocyte toxicity. Two-electrode voltage clamp (TEVC) recordings were performed as previously described. Unless otherwise specified, extracellular solution contained (in mM) 90 NaCl, 3 KCl, 0.5 BaCl2, 0.01 EDTA, 10 HEPES, and was brought to pH 7.4 with NaOH. The oocytes were placed in a dual track recording chamber and gravity perfused with solution exchange controlled via a computer-driven 8-valve positioner (Digital MVP Valve). […] Recording electrodes were filled with 0.3 M KCl, and currents were recorded with membrane voltage held at −40 mV. To establish constitutive activity of recombinant receptors when compared to wild type receptors, we used the oocyte recording solution described above, but with 90 mM N-methyl-D-glucamine (NMDG) chloride replacing 90 mM NaCl. […] In addition to establishing constitutive activity, 90 mM NMDG was used in recording protocols with drug treatment to obtain the percent maximum theoretical inhibition of a compound, or to determine the relative degree of drug potentiation. For Ca^2+ concentration-response curves, choline chloride was used to maintain equimolar concentrations of Cl^− ions in the extracellular solution across the changing concentrations of calcium chloride. All compounds used in this study for concentration-response oocyte recordings were dissolved in deionized water as 50–100 mM stock solutions. In some rescue pharmacology experiments, we substituted 1 mM CaCl2 for 0.5 mM BaCl2 to evaluate Ca^2+-dependent control of receptor responses.

Structure (SMILES) | Effect on constitutive current, in words (GluD2-T649A) | Fold-shift (IC50 A654T/IC50 T649A) (GluD2-T649A) | IC50 (GluD2-T649A) [µM] | Effect on constitutive current, in words (GluD2-A654T) | IC50 (GluD2-A654T) [µM] | Inhibition of constitutive currents, in words [1]
C[C@@H](N)C(=O)O [D-Alanine, D-alanine] | inhibited | 1.2 | 1300 | inhibited | 1600 | –
NCC(=O)O [Glycine] | inhibited | – | – | inhibited | – | –
N[C@@H](CC(=O)O)C(=O)O [L-Aspartic Acid, L-aspartic acid] | inhibited | 19 | 270 | inhibited | 5000 | –
CNC1(c2ccccc2Cl)CCCCC1=O (stereo not shown) [ketamine] | – | – | – | – | – | memantine inhibits GluD receptor constitutively active currents more effectively than ketamine
